The source of these data is article PMC10254852, “Design, Synthesis and Anticancer Evaluation of Nitroimidazole Radiosensitisers” (Molecules, 2023).

On the set-up of series [1]: method as in PMID 29253343. The settings on record: NIH-III mice, 2.2 mmol/kg i.v., cited from earlier work; for Cmax: read-out: Plasma Cmax.
The subject of another series is HCT116/54C tumours. Kind of series: Tumour radiosensitisation: ex vivo clonogenic assay. In kind it is in vivo, NIH-III mice. Particulars: for Sensitisation Ratio: 2.2 mmol/kg i.v. 5 min prior to 10 Gy radiation, surviving fraction after radiation/surviving fraction after drug + radiation; for enhancement of tumour killing of radiotherapy (RAD vs drug + RAD): 2.2 mmol/kg i.v. + 10 Gy, one-way ANOVA. The procedure:
(§1) Specific pathogen-free six- to eight-week-old female NIH-III mice, bred in the Vernon Jansen Unit, University of Auckland, were used for animal experiments. Animals had ad libitum access to food and water and were maintained in microisolator cages on a 12 h light/dark cycle. All treatments were administered by i.v. injection at a dose of 2.2 mmol/kg and injection volume of 10 mL/kg. Compounds 2, 34 and 38 were administered as solutions in saline containing 1% DMSO or for 9–12 as solutions in saline containing 2 molar equivalents of NaHCO3. Control animals received an i.v. injection of saline at 10 mL/kg. All animal experiments were conducted under the auspices of the University of Auckland Animal Ethics Committee (approval 1781).
(§2) Compounds were evaluated for in vivo radiosensitisation of hypoxic cells in HCT116/54C and UT-SCC-74B human tumour xenografts using clonogenic survival as an endpoint, using previously report methods. Tumours were grown subcutaneously on the flanks of NIH-III mice by injecting 5 × 10^6 HCT116/54C cells or UT-SCC-74B cells. Once tumours reached a volume of approximately 250 mm^3, mice were randomly assigned to 4 treatment groups and treated with: (A) vehicle control, (B) 10 Gy RAD only, (C) sensitiser only, or (D) sensitiser given before 10 Gy RAD. Drugs were administered as a single i.v. dose at 2.2 mmol/kg. […] Tumours were excised 18 h after treatment, and tumour cells were dissociated enzymatically and plated to determine the number of surviving (clonogenic) cells per gram of tumour tissue. SF and SR were calculated as described above. Statistical significance of drug effects was tested using one-way ANOVA with Sidak tests for multiple comparisons vs. radiation alone (Table 5).

Series [2] has as its system HCT116/54C cells. Kind of series: In vitro radiosensitisation under anoxia, clonogenic survival. The settings on record: compound 1 mM, radiation dose for 1% survival/radiation dose for 1% survival with compound, mean ± SEM. The format is cell-based, human. As for the experimental part: Next, we evaluated in vitro radiosensitisation by using a representative subset of nitroimidazole compounds in HCT116/54C cells with a clonogenic survival endpoint. Radiosensitisation was determined by treating cells under anoxia with a range of radiation doses alone and with compounds at equimolar doses (1 mM). Sensitiser enhancement ratios (SER) were calculated as the ratio of radiation dose required for 1% clonogenic survival alone or with compound (Table 3).
Cells were seeded onto 96-well plates at 10^5 cells per well and allowed to attach for 2 h. […] The plates were irradiated (Eldorado 78 ^60Co teletherapy unit, ~2 Gy/min) with 15 Gy under anoxia at room temperature for SR experiments. A metal wedge placed on the top of the metal chamber was used to achieve a graduated radiation dose across the plate, varying from 7 to 29 Gy, calibrated by Fricke dosimetry with ammonium thiocyanate as previously described for SER experiments. The control plate (compound alone, no radiation) was left inside the anaerobic chamber at room temperature during the irradiation period. After treatment, the cells were trypsinized and suspended in usual media + 1% penicillin-streptomycin (ThermoFisher Scientific), and 10-fold serial dilutions were plated for clonogenic survival. After 10 days, plates were stained with methylene blue (2 g/L in EtOH/H2O, 1:1 v/v) and colonies with more than 50 cells were counted. The surviving fraction (SF) was determined as: SF = PE(irradiated)/PE(control) where the plating efficiency (PE) = (No. of colonies)/(No. of cells plated). SF was plotted against radiation dose. Survival ratios (SR) were calculated: SR = (cell survival with radiation)/(cell survival with drug + radiation). Sensitizer enhancement ratios (SER) were calculated: SER = (radiation dose for 1% survival without compound)/(radiation dose for 1% survival with compound).

In series [3] the test system is HCT116/54C cells. Kind of series: In vitro cytotoxicity, 4 h exposure oxic/anoxic, 5-day regrowth, sulforhodamine B. The format is cell-based, human. Particulars: HCT116/54C; for HCR: IC50(oxic)/IC50(anoxic); for IC50: Homo sapiens. The source says: (§3) This allowed derivation of hypoxia cytotoxicity ratios (HCR) as IC50(oxic)/IC50(anoxic) in an HCT116 subclone HCT116/54C and two HNSCC cell lines, FaDu and UT-SCC-74B (Table 2).
(§4) HCT116/54C is an HCT116 subline that originated from a mixed culture with UT-SCC-54C cells, which was supplied alongside UT-SCC-74B by Prof. Bradly Wouters (University Health Network, Toronto, ON, Canada). HCT116/54C and UT-SCC-74B cells were passaged in minimum essential media (MEM, ThermoFisher Scientific, Waltham, MA, USA) with 10% foetal calf serum (FCS, Moregate Biotech, Hamilton, New Zealand), 4.5 mg/mL D-glucose (Sigma-Aldrich, St. Louis, MO, USA) and 20 mM HEPES (Sigma-Aldrich). FaDu cells were sourced from American Type Culture Collection and cultured in αMEM (ThermoFisher Scientific) with 10% FCS. All cell lines were confirmed mycoplasma-free by PlasmoTest (InvivoGen, San Diego, CA, USA) and were derived from STR-authenticated cryopreserved stocks. Log-phase cells were seeded into 96-well plates at 800 cells/well for HCT116/54C and 1500 cells/well for FaDu. […] After drug washout, cells were grown and stained as for the oxic IC50 assays. The hypoxic cytotoxicity ratio HCR was determined as HCR = IC50(oxic)/IC50(anoxic).

The test system of a further series is UT-SCC-74B cells. The series is described as above. The format is cell-based, human. Particulars: for IC50: Homo sapiens; for HCR: IC50(oxic)/IC50(anoxic).
Excerpt: as §3, §4

A further series has as its system FaDu cells. The series is described as above. In kind it is cell-based. Particulars: for IC50: Homo sapiens; for HCR: IC50(oxic)/IC50(anoxic).
Excerpt: as §3, §4

A further series has as its system UT-SCC-74B tumours. Kind of series: Tumour radiosensitisation: ex vivo clonogenic assay. In kind it is in vivo, NIH-III mice. As for the experimental part:
as §1, §2

The mark [4] stands for this setting: anoxic, 4 h exposure, mean ± SEM, n = 3–4, read-out: IC50 Anoxic.
Setting [5] is: oxic, 4 h exposure, mean ± SEM, n = 3–4, read-out: IC50 Oxic.

Like-named read-outs stand apart in the source and are kept apart here.

For orientation: AUC means concentration integrated over time. Usually Cmax stands for the peak of the concentration-time curve. With `O=[N+]([O-])c1nccn1CCS(=O)(=O)NCCOP(=O)(O)O` [Compound 10], in series [1], the AUC is listed as 0.64 mM·h, the T1/2 is reported as 2.21 h and the Cmax was 1140 µM. In the series on HCT116/54C tumours, the “Sensitisation Ratio” value turned out to be 1.78 and the “enhancement of tumour killing of radiotherapy (RAD vs drug + RAD)” value is on record as “not”.

As a reminder, the IC50 is the concentration needed to halve the response being measured. On to `COCC(O)Cn1ccnc1[N+](=O)[O-]` (stereo not drawn) [Compound 1, misonidazole, reference compound], for which the “SER at 1 mM” value in the series on HCT116/54C cells [2] was determined as 1.46 ± 0.01. Also, the results for the HCR in the series with HCT116/54C cells [3], in the series on UT-SCC-74B cells and with FaDu cells were above 16.8, above 11.9 and above 15.4, respectively. For the same molecule, the IC50 is 1.5 ± 0.3 mM with HCT116/54C cells [3] (4 h, read-out: IC50 Anoxic); above 25 mM in the series with HCT116/54C cells [3] (4 h, read-out: IC50 Oxic); 0.5 mM in the series on HCT116/54C cells [3] (read-out: hypoxic IC50); 2.1 ± 0.6 mM in the series with UT-SCC-74B cells (4 h, read-out: IC50 Anoxic); above 25 mM in the series with UT-SCC-74B cells (4 h, read-out: IC50 Oxic); 1.3 ± 0.2 mM with FaDu cells (4 h, read-out: IC50 Anoxic). For the same molecule, in the series on FaDu cells (4 h, read-out: IC50 Oxic), the IC50 was above 20 mM.

In the case of `O=[N+]([O-])c1nccn1CS(=O)(=O)NCCOP(=O)(O)O` [Compound 9], in series [1], the AUC is reported as 0.55 mM·h, the T1/2 is given as 2.33 h and the highest concentration (Cmax) was 920 µM. Also, the “Sensitisation Ratio” value with UT-SCC-74B tumours (2.2 mmol/kg i.v. 5 min prior to 10 Gy radiation, surviving fraction after radiation/surviving fraction after drug + radiation) is 9.64. Further, in the series on UT-SCC-74B tumours (2.2 mmol/kg i.v. + 10 Gy, one-way ANOVA), the “enhancement of tumour cell killing by radiotherapy (RAD vs drug + RAD)” value was “significantly enhanced tumour cell killing by radiotherapy”. Also, in the series on HCT116/54C tumours, the “Sensitisation Ratio” value was 6.22 and the “enhancement of tumour killing of radiotherapy (RAD vs drug + RAD)” value is on record as “significantly enhanced the tumour killing of radiotherapy”. The “single agent cell kill” value in the series with HCT116/54C tumours (drug alone 2.2 mmol/kg i.v., relative to untreated tumours) is on record as 65.7 ± 8.2%.

In the case of `Cc1ncc([N+](=O)[O-])n1CCS(=O)(=O)NCCN1CCOCC1` [Compound 42], the “SER at 1 mM” value in the series on HCT116/54C cells [2] is given as 1.16 ± 0.01. For the same molecule, the HCR in the series with HCT116/54C cells [3] was determined as 1.8; in the series with UT-SCC-74B cells, 1.4; in the series with FaDu cells it was 1.3. The IC50 in the series on HCT116/54C cells [3] (setting [4]) was found to be 4.3 ± 0.2 mM; with HCT116/54C cells [3] (setting [5]) it was 7.6 ± 0.4 mM; with UT-SCC-74B cells (setting [4]), 6.6 ± 0.6 mM; in the series with UT-SCC-74B cells (setting [5]), 8.9 ± 1.6 mM; in the series on FaDu cells (setting [4]), 7.8 ± 0.2 mM; with FaDu cells (setting [5]), 9.8 ± 1.2 mM.

As for `O=[N+]([O-])c1cncn1CS(=O)(=O)NCCOP(=O)(O)O` [Compound 11], in series [1], the AUC was 0.71 mM·h, the T1/2 is listed as 1.72 h and the Cmax is 1100 µM. Moreover, in the series with HCT116/54C tumours, the “Sensitisation Ratio” value is 1.85 and the “enhancement of tumour killing of radiotherapy (RAD vs drug + RAD)” value is “not”.
